Assay results taken from patent US20240024273A1, “TOPICAL ADMINISTRATION OF 2-(DIETHYLAMINO)ETHYL 2-(4-ISOBUTYLPHENYL)PROPRIONATE FOR TREATMENT OF DISEASES” (TECHFIELDS PHARMA CO., LTD., priority 2020, published 2024).

Legend:
[1] = tested on: Mild to Moderate Osteoarthritis of the Knee; test: Phase 2 study: subject's and physician's global assessment of response to therapy; format: in vivo, human
Description: 3.9.3. Exploratory Efficacy Endpoints: • 1. Subject's global assessment of disease status of the target knee at 2, 4, 8, and 12 weeks of treatment; • 2. Investigator's global assessment of disease status of the target knee at 2, 4, 8, and 12 weeks of treatment; • 3. Subject's global assessment of response to therapy of the target knee at 2, 4, 8, and 12 weeks of treatment; • 4. Investigator's global assessment of response to therapy of the target knee at 2, 4, 8, and 12 weeks of treatment; • 5. Change from Baseline over time in VAS pain scores for the target knee from Daily Diary data; • 6. Amount of rescue medication (acetaminophen) consumed per day for target knee pain.
Data for the exploratory efficacy endpoints will be summarized using descriptive statistics.

rats = test: Acute dermal maximum tolerated dose study; format: in vivo; details: single dermal dose 1000 mg/kg
[2] = Acute dermal maximum tolerated dose study; format: in vivo, Rats; details: both sexes, rat, in vivo, topical or ocular, 1000 mg/kg; once, dermal; male and female rats
mini pigs = test: 39-week GLP repeated dermal dose toxicity and toxicokinetics study with 4-week recovery; format: in vivo; details: 5, 12.5 and 25 mg/kg dermal, 39 weeks
[3] = Second Phase 2 study: plasma ibuprofen pharmacokinetics; format: in vivo, human; details: low dose levels (below 35 mg/day)
Protocol: All subjects enrolled at designated sites that have the capability to keep subjects overnight will be included in the PK subgroup until PK samples for 40 subjects per treatment group have been collected. […] At the Week 12/EOS visit, PK blood samples can be collected predose and at 2, 4, and 6 hours postdose. Subjects will only receive the morning dose at the Week 12/EOS visit.
Thus only ibuprofen was analyzed in this trial.

[4] = Phase 1 clinical study: plasma pharmacokinetics of prodrug and ibuprofen; format: in vivo, human; details: steady-state, 70 mg
[5] = 28-day GLP repeated dermal dose toxicity and toxicokinetics study; set-up: species or system Rats; details: rat, in vivo

In the case of CCN(CC)CCOC(=O)C(C)c1ccc(CC(C)C)cc1 (stereo not shown) [2-(diethylamino)ethyl 2-(4-isobutylphenyl)propionate], the “Physician's global assessment of response to therapy: Excellent” value ([1]; 8.75 mg/knee (BID)) is reported as 11.1%, the “Physician's global assessment of response to therapy: fair” value (shortened to “Physician's global assessment … fair”) ([1]; 8.75 mg/knee (BID)) is reported as 36.5% and the “Physician's global assessment of response to therapy: good” value ([1]; 8.75 mg/knee (BID)) is reported as 38.1%. For the same molecule, the “Physician's global assessment of response to therapy: none” value (from here on “Physician's global assessment … none”) ([1]; 8.75 mg/knee (BID)) was 7.9%, the “Physician's global assessment of response to therapy: poor” value (“Physician's global assessment … poor” for short) ([1]; 8.75 mg/knee (BID)) was 6.3% and the “Physician's global assessment of response to therapy: total percentage of excellent and good” value ([1]; 8.75 mg/knee (BID)) was 49.2%. For the same molecule, the “Subject's global assessment of response to therapy: Excellent” value ([1]; 8.75 mg/knee (BID)) was 7.8%, the “Subject's global assessment of response to therapy: fair” value (“Subject's global assessment … fair” for short) ([1]; 8.75 mg/knee (BID)) was 29.7% and the “Subject's global assessment of response to therapy: good” value ([1]; 8.75 mg/knee (BID)) was 43.8%. The “Subject's global assessment of response to therapy: none” value (shortened to “Subject's global assessment … none”) ([1]; 8.75 mg/knee (BID)) was 9.4%, the “Subject's global assessment of response to therapy: poor” value (“Subject's global assessment … poor” below) ([1]; 8.75 mg/knee (BID)) was 9.4% and the “Subject's global assessment of response to therapy: total percentage of excellent and good” value ([1]; 8.75 mg/knee (BID)) was 51.6%. The “Physician's global assessment of response to therapy: Excellent” value ([1]; 17.5 mg/knee (BID)) was 23.2%, the “Physician's global assessment … fair” value ([1]; 17.5 mg/knee (BID)) was 18.8% and the “Physician's global assessment of response to therapy: good” value ([1]; 17.5 mg/knee (BID)) was 43.5%. For the same molecule, the “Physician's global assessment … none” value ([1]; 17.5 mg/knee (BID)) was 5.8%, the “Physician's global assessment … poor” value ([1]; 17.5 mg/knee (BID)) was 8.7% and the “Physician's global assessment of response to therapy: total percentage of excellent and good” value ([1]; 17.5 mg/knee (BID)) was 66.7%. For the same molecule, the “Subject's global assessment of response to therapy: Excellent” value ([1]; 17.5 mg/knee (BID)) was 20.3%, the “Subject's global assessment … fair” value ([1]; 17.5 mg/knee (BID)) was 17.2% and the “Subject's global assessment of response to therapy: good” value ([1]; 17.5 mg/knee (BID)) was 50.0%. The “Subject's global assessment … none” value ([1]; 17.5 mg/knee (BID)) was 7.8%, the “Subject's global assessment … poor” value ([1]; 17.5 mg/knee (BID)) was 4.7% and the “Subject's global assessment of response to therapy: total percentage of excellent and good” value ([1]; 17.5 mg/knee (BID)) was 70.3%. For the same molecule, the “Physician's global assessment of response to therapy: Excellent” value ([1]; 35 mg/knee (BID)) was 18.8%, the “Physician's global assessment … fair” value ([1]; 35 mg/knee (BID)) was 17.2% and the “Physician's global assessment of response to therapy: good” value ([1]; 35 mg/knee (BID)) was 42.2%. For the same molecule, the “Physician's global assessment … none” value ([1]; 35 mg/knee (BID)) was 7.8%, the “Physician's global assessment … poor” value ([1]; 35 mg/knee (BID)) was 14.1% and the “Physician's global assessment of response to therapy: total percentage of excellent and good” value ([1]; 35 mg/knee (BID)) was 60.9%. For the same molecule, the “Subject's global assessment of response to therapy: Excellent” value ([1]; 35 mg/knee (BID)) was 18.0%, the “Subject's global assessment … fair” value ([1]; 35 mg/knee (BID)) was 18.3% and the “Subject's global assessment of response to therapy: good” value ([1]; 35 mg/knee (BID)) was 49.2%. For the same molecule, the “Subject's global assessment … none” value ([1]; 35 mg/knee (BID)) was 9.8%, the “Subject's global assessment … poor” value ([1]; 35 mg/knee (BID)) was 4.9% and the “Subject's global assessment of response to therapy: total percentage of excellent and good” value ([1]; 35 mg/knee (BID)) was 67.2%. For the same molecule, the tolerability (rats) was 2-(4-isobutylphenyl)propionate to rats at 1000 mg/kg was well tolerated, the MTD [2] was greater than 1000 mg/kg and the “local or systemic adverse effects” value (mini pigs) was “mini pigs with 4-week recovery was done and no test article-related local”. For the same molecule, the “detectability of prodrug in plasma” value [3] was “cannot be detected in most of subjects' plasma”, the “relative bioavailability of spray vs topical application (plasma ibuprofen)” value [4] was “comparable at steady-state” and the NOAEL at 28 days ([5]; both sexes, topical or ocular, 28-day dermal, male and female, read-out: systemic NOAEL) was 100 mg/kg/day. It also gave a Cmax ([5]; female, topical, 100 mg/kg/day, females, Day 28) of 46800 ng/mL.
